{"source": "BindingDB's records for doi:10.1021/jm990281p", "about": "(Parke-Davis Pharmaceutical Research, 2000)", "data": [{"target": "T1, Dimer of Gag-Pol polyprotein [489-587] (Human immunodeficiency virus 1, UniProt P12497)", "T1 construct": "489-587", "test": "Protease Inhibition Assay", "conditions": "not given", "experimental": "(§1) Sensitivity of HIV-1 protease activity to protease inhibitors was determined by a peptide substrate cleavage assay. Protease products were analyzed on a reverse-phase high-pressure liquid chromatograph.", "units": {"IC50": "nM", "Ki": "nM"}, "values": [{"smiles": "Cc1cc(SC2C(=O)CC(CCc3ccccc3)(C(C)C)OC2=O)c(C(C)(C)C)cc1NS(=O)(=O)c1cccnc1", "note": "(configuration not stated)", "IC50": 3.5}, {"smiles": "Cc1cc(SC2C(=O)CC(CCc3ccc(N)cc3)(C(C)C)OC2=O)c(C(C)(C)C)cc1OS(=O)(=O)c1nccn1C", "note": "(configuration not stated) [4-({6-[2-(4-aminophenyl)ethyl]-4-hydroxy-2-oxo-6-(propan-2-yl)-5,6-dihydro-2H-pyran-3-yl}sulfanyl)-5-tert-butyl-2-methylphenyl 1-methyl-1H-imidazole-2-sulfonate]", "IC50": 2.2}, {"smiles": "Cc1cc(SC2C(=O)CC(CCc3ccc(N)cc3)(C(C)C)OC2=O)c(C(C)(C)C)cc1OS(=O)(=O)c1ccccc1-c1cccs1", "note": "(configuration not stated) [4-({6-[2-(4-aminophenyl)ethyl]-4-hydroxy-2-oxo-6-(propan-2-yl)-5,6-dihydro-2H-pyran-3-yl}sulfanyl)-5-tert-butyl-2-methylphenyl 2-(thiophen-2-yl)benzene-1-sulfonate]", "IC50": 18.5}, {"smiles": "Cc1cc(SC2C(=O)CC(CCc3ccc(N)cc3)(C(C)C)OC2=O)c(C(C)(C)C)cc1OS(=O)(=O)c1cccc(-c2cccnc2)c1", "note": "(configuration not stated) [4-({6-[2-(4-aminophenyl)ethyl]-4-hydroxy-2-oxo-6-(propan-2-yl)-5,6-dihydro-2H-pyran-3-yl}sulfanyl)-5-tert-butyl-2-methylphenyl 3-(pyridin-3-yl)benzene-1-sulfonate]", "IC50": 4.1}, {"smiles": "Cc1cc(SC2C(=O)CC(CCc3ccc(O)cc3)(C(C)C)OC2=O)c(C(C)(C)C)cc1OS(=O)(=O)c1nccn1C", "note": "(configuration not stated) [5-tert-butyl-4-({4-hydroxy-6-[2-(4-hydroxyphenyl)ethyl]-2-oxo-6-(propan-2-yl)-5,6-dihydro-2H-pyran-3-yl}sulfanyl)-2-methylphenyl 1-methyl-1H-imidazole-2-sulfonate]", "IC50": 2.4}, {"smiles": "Cc1cc(SC2C(=O)CC(CCc3ccc(O)cc3)(C(C)C)OC2=O)c(C(C)(C)C)cc1OS(C)(=O)=O", "note": "(configuration not stated) [5-tert-butyl-4-({4-hydroxy-6-[2-(4-hydroxyphenyl)ethyl]-2-oxo-6-(propan-2-yl)-5,6-dihydro-2H-pyran-3-yl}sulfanyl)-2-methylphenyl methanesulfonate]", "IC50": 2.2}, {"smiles": "CCCC1(CCc2ccc(O)cc2)CC(=O)C(Sc2cc(C)c(OS(=O)(=O)c3nccn3C)cc2C(C)(C)C)C(=O)O1", "note": "(configuration not stated) [5-tert-butyl-4-({4-hydroxy-6-[2-(4-hydroxyphenyl)ethyl]-2-oxo-6-propyl-5,6-dihydro-2H-pyran-3-yl}sulfanyl)-2-methylphenyl 1-methyl-1H-imidazole-2-sulfonate]", "IC50": 2.2}, {"smiles": "Cc1cc(SC2C(=O)CC(CCc3ccc(O)cc3)(CC(C)C)OC2=O)c(C(C)(C)C)cc1OS(=O)(=O)c1nccn1C", "note": "(configuration not stated) [5-tert-butyl-4-({4-hydroxy-6-[2-(4-hydroxyphenyl)ethyl]-6-(2-methylpropyl)-2-oxo-5,6-dihydro-2H-pyran-3-yl}sulfanyl)-2-methylphenyl 1-methyl-1H-imidazole-2-sulfonate]", "IC50": 3.6}, {"smiles": "Cc1cc(SC2C(=O)CC(C)(CCc3ccc(O)cc3)OC2=O)c(C(C)(C)C)cc1OS(=O)(=O)c1nccn1C", "note": "(configuration not stated) [5-tert-butyl-4-({4-hydroxy-6-[2-(4-hydroxyphenyl)ethyl]-6-methyl-2-oxo-5,6-dihydro-2H-pyran-3-yl}sulfanyl)-2-methylphenyl 1-methyl-1H-imidazole-2-sulfonate]", "IC50": 2}, {"smiles": "Cc1cc(SC2C(=O)CC(CCc3ccc(O)cc3)(C3CCCCC3)OC2=O)c(C(C)(C)C)cc1OS(=O)(=O)c1nccn1C", "note": "(configuration not stated) [5-tert-butyl-4-({6-cyclohexyl-4-hydroxy-6-[2-(4-hydroxyphenyl)ethyl]-2-oxo-5,6-dihydro-2H-pyran-3-yl}sulfanyl)-2-methylphenyl 1-methyl-1H-imidazole-2-sulfonate]", "IC50": 8}, {"smiles": "Cc1cc(SC2C(=O)CC(CCc3ccccc3)(C(C)C)OC2=O)c(C(C)(C)C)cc1OS(=O)(=O)c1nccn1C", "note": "(configuration not stated) [5-tert-butyl-4-{[4-hydroxy-2-oxo-6-(2-phenylethyl)-6-(propan-2-yl)-5,6-dihydro-2H-pyran-3-yl]sulfanyl}-2-methylphenyl 1-methyl-1H-imidazole-2-sulfonate]", "IC50": 3}, {"smiles": "Cc1cc(SC2C(=O)C[C@](CCc3ccc(O)cc3)(C(C)C)OC2=O)c(C(C)(C)C)cc1N", "note": "(stereo partly drawn) [(6R)-3-[(4-amino-2-tert-butyl-5-methylphenyl)sulfanyl]-4-hydroxy-6-[2-(4-hydroxyphenyl)ethyl]-6-(propan-2-yl)-5,6-dihydro-2H-pyran-2-one]", "Ki": 13}, {"smiles": "Cc1cc(SC2C(=O)CC(CCc3ccccc3)(C(C)C)OC2=O)c(C(C)(C)C)cc1NS(=O)(=O)c1nccn1C", "note": "(configuration not stated) [N-(5-tert-butyl-4-{[4-hydroxy-2-oxo-6-(2-phenylethyl)-6-(propan-2-yl)-5,6-dihydro-2H-pyran-3-yl]sulfanyl}-2-methylphenyl)-1-methyl-1H-imidazole-2-sulfonamide]", "IC50": 1.9}, {"smiles": "Cc1cc(SC2C(=O)CC(CCc3ccccc3)(C(C)C)OC2=O)c(C(C)(C)C)cc1NS(=O)(=O)c1ccc(C(F)(F)F)cn1", "note": "(configuration not stated) [N-(5-tert-butyl-4-{[4-hydroxy-2-oxo-6-(2-phenylethyl)-6-(propan-2-yl)-5,6-dihydro-2H-pyran-3-yl]sulfanyl}-2-methylphenyl)-5-(trifluoromethyl)pyridine-2-sulfonamide]", "Ki": 1.04}, {"smiles": "Cc1cc(SC2C(=O)C[C@](CCc3ccccc3)(C(C)C)OC2=O)c(C(C)(C)C)cc1NS(=O)(=O)c1ccc(C(F)(F)F)cn1", "note": "(stereo partly drawn) [N-(5-tert-butyl-4-{[(6R)-4-hydroxy-2-oxo-6-(2-phenylethyl)-6-(propan-2-yl)-5,6-dihydro-2H-pyran-3-yl]sulfanyl}-2-methylphenyl)-5-(trifluoromethyl)pyridine-2-sulfonamide]", "Ki": 6.4}, {"smiles": "Cc1cc(SC2C(=O)C[C@](CCc3ccc(O)cc3)(C(C)C)OC2=O)c(C(C)(C)C)cc1NS(=O)(=O)c1ccc(C(F)(F)F)cn1", "note": "(stereo partly drawn) [N-(5-tert-butyl-4-{[(6R)-4-hydroxy-6-[2-(4-hydroxyphenyl)ethyl]-2-oxo-6-(propan-2-yl)-5,6-dihydro-2H-pyran-3-yl]sulfanyl}-2-methylphenyl)-5-(trifluoromethyl)pyridine-2-sulfonamide]", "Ki": 9.54}]}, {"target": "T1, Dimer of Gag-Pol polyprotein [489-587]", "test": "Protease Inhibition Assay", "conditions": "pH 6.2; 37 °C", "experimental": "as §1", "units": {"IC50": "nM"}, "values": [{"smiles": "Cc1cc(SC2C(=O)CC(CCc3ccccc3)(C(C)C)OC2=O)c(C(C)(C)C)cc1NS(=O)(=O)c1ccc(C#N)cc1", "note": "(configuration not stated) [N-(5-tert-butyl-4-{[4-hydroxy-2-oxo-6-(2-phenylethyl)-6-(propan-2-yl)-5,6-dihydro-2H-pyran-3-yl]sulfanyl}-2-methylphenyl)-4-cyanobenzene-1-sulfonamide]", "IC50": 9.1}, {"smiles": "Cc1cc(SC2C(=O)CC(C)(CCc3ccc(O)cc3)OC2=O)c(C(C)(C)C)cc1NS(=O)(=O)c1nccn1C", "note": "(configuration not stated) [N-[5-tert-butyl-4-({4-hydroxy-6-[2-(4-hydroxyphenyl)ethyl]-6-methyl-2-oxo-5,6-dihydro-2H-pyran-3-yl}sulfanyl)-2-methylphenyl]-1-methyl-1H-imidazole-2-sulfonamide]", "IC50": 1.9}, {"smiles": "Cc1cc(SC2C(=O)CC(C)(CCc3ccc(O)cc3)OC2=O)c(C(C)(C)C)cc1NS(=O)(=O)c1cccc(-c2cccs2)c1", "note": "(configuration not stated) [N-[5-tert-butyl-4-({4-hydroxy-6-[2-(4-hydroxyphenyl)ethyl]-6-methyl-2-oxo-5,6-dihydro-2H-pyran-3-yl}sulfanyl)-2-methylphenyl]-3-(thiophen-2-yl)benzene-1-sulfonamide]", "IC50": 6.3}]}, {"target": "T2, Gag-Pol polyprotein [489-587] (Human immunodeficiency virus 1, UniProt P04585)", "T2 construct": "489-587", "test": "Protease Inhibition Assay", "conditions": "not given", "experimental": "as §1", "units": {"IC50": "nM"}, "values": [{"smiles": "Cc1cc(SC2C(=O)CC(CCc3ccccc3)(C(C)C)OC2=O)c(C(C)(C)C)cc1NS(=O)(=O)c1cccnc1", "note": "(configuration not stated)", "IC50": 3.5}, {"smiles": "CCNS(=O)(=O)Oc1cc(C(C)(C)C)c(SC2C(=O)CC(CCc3ccccc3)(C(C)C)OC2=O)cc1C", "note": "(configuration not stated)", "IC50": 8.9}, {"smiles": "Cc1cc(SC2C(=O)CC(CCc3ccc(O)cc3)(C3CCCCC3)OC2=O)c(C(C)(C)C)cc1OS(=O)(=O)Cn1ccnc1", "note": "(configuration not stated)", "IC50": 8}, {"smiles": "Cc1cc(SC2C(=O)CC(C)(CCc3ccc(O)cc3)OC2=O)c(C(C)(C)C)cc1OS(=O)(=O)Cn1ccnc1", "note": "(configuration not stated)", "IC50": 2}, {"smiles": "Cc1cc(SC2C(=O)CC(CCc3ccc(O)cc3)(C(C)C)OC2=O)c(C(C)(C)C)cc1OS(=O)(=O)Cn1ccnc1", "note": "(configuration not stated)", "IC50": 2.4}, {"smiles": "Cc1cc(SC2C(=O)CC(CCc3ccccc3)(C(C)C)OC2=O)c(C(C)(C)C)cc1OS(=O)(=O)Cn1ccnc1", "note": "(configuration not stated)", "IC50": 3}, {"smiles": "Cc1cc(SC2C(=O)CC(C)(CCc3ccc(O)cc3)OC2=O)c(C(C)(C)C)cc1NS(=O)(=O)Cn1ccnc1", "note": "(configuration not stated)", "IC50": 1.9}, {"smiles": "Cc1cc(SC2C(=O)CC(CCc3ccc(N)cc3)(C(C)C)OC2=O)c(C(C)(C)C)cc1OS(=O)(=O)c1cccs1", "note": "(configuration not stated)", "IC50": 18.5}, {"smiles": "CCCC1(CCc2ccc(O)cc2)CC(=O)C(Sc2cc(C)c(OS(=O)(=O)Cn3ccnc3)cc2C(C)(C)C)C(=O)O1", "note": "(configuration not stated)", "IC50": 2.2}, {"smiles": "Cc1cc(SC2C(=O)CC(CCc3ccc(O)cc3)(CC(C)C)OC2=O)c(C(C)(C)C)cc1OS(=O)(=O)Cn1ccnc1", "note": "(configuration not stated)", "IC50": 3.6}, {"smiles": "Cc1cc(SC2C(=O)CC(CCc3ccccc3)(C(C)C)OC2=O)c(C(C)(C)C)cc1NS(=O)(=O)Cn1ccnc1", "note": "(configuration not stated)", "IC50": 1.9}, {"smiles": "Cc1cc(SC2C(=O)CC(C)(CCc3ccc(O)cc3)OC2=O)c(C(C)(C)C)cc1NS(=O)(=O)c1ccc(-c2cccs2)cc1", "note": "(configuration not stated)", "IC50": 6.3}, {"smiles": "Cc1cc(SC2C(=O)CC(CCc3ccc(N)cc3)(C(C)C)OC2=O)c(C(C)(C)C)cc1OS(=O)(=O)Cn1ccnc1", "note": "(configuration not stated)", "IC50": 2.2}, {"smiles": "Cc1cc(SC2C(=O)CC(CCc3ccc(N)cc3)(C(C)C)OC2=O)c(C(C)(C)C)cc1OS(=O)(=O)c1cccnc1", "note": "(configuration not stated)", "IC50": 4.1}, {"smiles": "Cc1cc(SC2C(=O)CC(CCc3ccc(N)cc3)(C(C)C)OC2=O)c(C(C)(C)C)cc1OS(=O)(=O)N(C)C", "note": "(configuration not stated) [4-({6-[2-(4-aminophenyl)ethyl]-4-hydroxy-2-oxo-6-(propan-2-yl)-5,6-dihydro-2H-pyran-3-yl}sulfanyl)-5-tert-butyl-2-methylphenyl N,N-dimethylsulfamate]", "IC50": 3.9}, {"smiles": "CCNS(=O)(=O)Oc1cc(C(C)(C)C)c(SC2C(=O)CC(CCc3ccc(N)cc3)(C(C)C)OC2=O)cc1C", "note": "(configuration not stated) [4-({6-[2-(4-aminophenyl)ethyl]-4-hydroxy-2-oxo-6-(propan-2-yl)-5,6-dihydro-2H-pyran-3-yl}sulfanyl)-5-tert-butyl-2-methylphenyl N-ethylsulfamate]", "IC50": 4.3}, {"smiles": "CCNS(=O)(=O)Oc1cc(C(C)(C)C)c(SC2C(=O)CC(CCc3ccc(O)cc3)(C(C)C)OC2=O)cc1C", "note": "(configuration not stated) [6-Alkyl-5,6-Dihydropyran-2-one 20]", "IC50": 4.9}, {"smiles": "Cc1cc(SC2C(=O)CC(CCc3ccc(O)cc3)(C(C)C)OC2=O)c(C(C)(C)C)cc1OS(=O)(=O)N(C)C", "note": "(configuration not stated) [6-Alkyl-5,6-Dihydropyran-2-one 22]", "IC50": 3.4}]}]}
